The source of these data is US4853221A, “Method for treating non-small cell lung cancer, head and neck cancers and breast cancer” (Warner-Lambert Company, priority 1987, dated 1989).

One assay relates to L5178Y. The assay can be described thus: Inhibition of L5178Y cell growth in vitro. Format: cell-based, murine. The procedure:
(§1) Two leukemia cell lines (L1210 and L5178Y) and two solid tumor cell lines (Sarcoma 180 and Walker 256) were used in these studies.
(§2) Logarithmically growing L1210 cells (approximately 3×10^5 cells/ml) were diluted with Fischer's medium (containing 10% horse serum) to an approximate concentration of 5×10^4 cells/ml. Cells were planted in duplicate into 15 ml culture tubes containing either no drug or various amounts of drug, and incubated for 48 hours at 37° C. before being counted.
(§3) Trimetrexate was also evaluated in a similar manner side-by-side with methotrexate for its effect on the growth of three additional murine cell lines (L5178Y, Sarcoma-180, and Walkler-256) and three human cell lines (acute myelogenous leukemia K-562, T-cell 8402, and B-cell 8392), propagated in vitro.

The test system of assay [1] is murine tumor cell lines (L5178Y, Sarcoma-180, Walker-256). The assay can be described thus: Comparison with methotrexate against murine tumor cell lines in vitro. Format: cell-based. The conditions noted are these: all of the murine tumor cell lines tested. The method, then: as §1, §2, §3
In a further assay the test system is Lung tumor. The assay is described as follows: Human tumor cloning system, lung tumors. The assay is classed as cell-based. The conditions noted are these: one hour, 8 specimens. The text has this:
The activity of trimetrexate was compared with that of methotrexate in tests with a human tumor cloning system (Latham, et al., Proc. Am. Assoc. Cancer Res., 24: 278 (1983)). The data from these tests appear in Table III were the activities are expressed as the numbers of tumors with 50% or greater reduction in tumor colony forming units after one hour exposure to the drug.

In a further assay the test system is P388. The assay can be described thus: Antitumor activity against P388 leukemia in mice. The assay is classed as in vivo, mouse. The conditions noted are these: for Life Span % ILS / Life Span % T/C: optimal dose 40 mg/kg (dose range 80-2.5), ip daily, Days 1-9. The procedure:
The growth inhibition properties of 5-methyl-6-[[(3,4,5-trimethoxyphenyl)amino]methyl]-2,4-quinazolinediamine (trimetrexate) against several transplanted murine tumors were evaluated employing the antitumor screening program of the Drug Evaluation Branch of the National Cancer Institute. The protocols for these tests is described in Cancer Chemotherapy Reports, 3: 1-103 (1972). The dosing schedules are results from these tests appear in Table IV.
In the L1210, P388, and B-16 melanoma models, results are expressed as a percentage of median control survival time. Percentage of increase in survival time and/or cures (30 day survivors) were the parameters used to measure the effectiveness of the agents. An initial median survival value for treated over control percentage (% T/C) equal to or greater than 125% was considered indicative of activity. For confirmatory activity, two multidose assays must show % T/C values equal to or greater than 150%.
Percent increase in median life span (% ILS) values appearing in the tables were calculated from the formula; 100×(median life span in days of treated mice minus median life span in days of untreated mice) divided by median life span in days of untreated control mice. That is, % ILS=[100×(T-C)]/C. % T/C and %ILS are directly interconvertible by the formula % ILS=% T/C -100.
L1210 Leukemic Cells (10^5 /mouse) and P388 leukemic cells (10^6 /mouse)were in the ascites form and were transferred to BD2F1 or CD2F1 mice by intraperitoneal (ip) injection of 0.1 ml of cells taken from animals bearing 6- to 7-day old tumors. Leukemic cells were injected ip one day prior to the start of treatment.
In all of the mouse tumor studies described above, routine controls consisted of matching ten normal mice (with no tumors) to each tumor-bearing treatment group and injecting them with the same drug at the same dosages, schedules, days of administration, and drug route as the tumor-bearing mice. In this way, drug-induced toxicity (lethality and weight loss) could be clearly separated from the effects of the drug on the tumors.

The test system of the next assay is breast cancer. The assay can be described thus: Phase II trial, breast cancer. Format: in vivo, human. The method, then: The efficacy and safety of trimetrexate in the treatment of patients with breast cancer was evaluated in an 10-center Phase II study. Twenty-eight patients participated in the multicenter study, with a group of 20 patients considered evaluable. […] All patients had metastatic disease and the principal sites of metastasis included lung, bone, and liver.
Patients were initially treated intravenously with 8 mg/m^2 /day of trimetrexate on Days 1 through 5 of a 21-day treatment cycle. Patients were evaluated after each treatment course and were withdrawn from the study if progressive disease was documented. Patients were eligible to received six courses of treatment if stable disease was documented; treatment beyond six courses was left to the discretion of the physician. The dose of trimetrexate was adjusted for each patient prior to each subsequent course of treatment based upon the patient reaction to the drug in the preceding course of treatment, and ranged from 8 mg/m^2 /day to about […]. A total of 91 courses of treatment were administered to the patients in the study.

For the molecule `COc1cc(NCc2ccc3nc(N)nc(N)c3c2C)cc(OC)c1OC` [Trimetrexate, 5-methyl-6-[[(3,4,5-trimethoxyphenyl)amino]methyl]-2,4-quinazolinediamine], in the assay with L5178Y (Mus musculus, 48 h, Murine L5178Y, read-out: ED50 (the source's name)), the IC50 was determined as 2 nM. Further, the figures for the “potency relative to methotrexate” value (with L5178Y (on a molar basis); in assay [1]) were “only slightly more effective on a molar basis” and “more potent than methotrexate”, respectively. Further, the “Number of Tumors with 50% or Greater Decrease in Tumor Colony Forming Units” value in the assay with Lung tumor (trimetrexate 0.1 μg/ml) and in the assay on Lung tumor (trimetrexate 1.0 μg/ml) was 1 throughout. For the same molecule, in the assay on P388 (mouse, in vivo), the “antitumor activity” value is “good activity”. The “Life Span % ILS” value in the assay with P388 (first line) turned out to be 143%; in the assay with P388 (second line) it was 142%. Further, the “Life Span % T/C” value was determined as 243% in the assay on P388 (first line) and 242% in the assay on P388 (second line). Also, the “patients with stable disease” value in the assay on breast cancer (20 evaluable patients) came out at 10 patients. Moreover, the “patients with partial response” value with breast cancer (20 evaluable patients, initial 8 mg/m^2/day iv Days 1-5 of 21-day cycle) is listed as 3 patients. Further, the partial response rate in the assay with breast cancer (p5% confidence interval 0-30.6%, 20 evaluable patients) was determined as 15%. Further, the “median duration of partial response” value in the assay with breast cancer (range 6.4-18.7+ weeks) came to 13.1 weeks.
